Measurements from BigSolDB 2.1.

[NH3+]O.[NH3+]O.[O-]n1nnnc1-c1nnnn1[O-]
solubility (mole fraction)
Conditions | 298.15 K | 303.15 K | 308.15 K | 313.15 K | 318.15 K | 323.15 K | 328.15 K | 333.15 K
in acetic acid | 7.44e-05 | 8.86e-05 | 0.000105 | 0.000125 | 0.000146 | 0.000171 | 0.000199 | 0.000231
in ethanol | 1.35e-05 | 1.54e-05 | 1.76e-05 | 2.01e-05 | 2.27e-05 | 2.56e-05 | 2.88e-05 | 3.24e-05
in formic acid | 0.00144 | 0.00163 | 0.00183 | 0.00205 | 0.00229 | 0.00254 | 0.00283 | 0.00313
in water | 0.000128 | 0.000156 | 0.00019 | 0.000228 | 0.000274 | 0.000325 | 0.000385 | 0.000456
